This assay deals with T1, p300 (Homo sapiens, UniProt Q09472).
T1 construct: host or cells: A549 P300 HiBit cells
As to the kind of experiment: P300 degradation, HiBit technology in A549 P300 HiBit cells (2 h). In kind it is cell-based. The conditions noted are these: 2 hrs post treatment; for Dmax: A549, A549 P300 HiBit cells; for DC50: A549 P300 HiBit cells. Put shortly: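 A549 HiBiT knock-in cells seeded overnight at 37 °C, 5% CO2 in F-12K with 10% heat-inactivated FBS, then given serial dilutions of compound from 10 mM DMSO stocks. Lytic HiBiT detection reagent added for 10 min at room temperature; luminescence read. Potency and Dmax reported.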

The results in this text go back to patent publication US20250114345A1, “COMPOUNDS AND COMPOSITIONS AS CBP/P300 DEGRADERS AND USES THEREOF” (Oncopia Therapeutics, Inc. d/b/a/ SK Life Science Labs, priority 2023, published 2025).

T1 sequence (Q09472 whole entry): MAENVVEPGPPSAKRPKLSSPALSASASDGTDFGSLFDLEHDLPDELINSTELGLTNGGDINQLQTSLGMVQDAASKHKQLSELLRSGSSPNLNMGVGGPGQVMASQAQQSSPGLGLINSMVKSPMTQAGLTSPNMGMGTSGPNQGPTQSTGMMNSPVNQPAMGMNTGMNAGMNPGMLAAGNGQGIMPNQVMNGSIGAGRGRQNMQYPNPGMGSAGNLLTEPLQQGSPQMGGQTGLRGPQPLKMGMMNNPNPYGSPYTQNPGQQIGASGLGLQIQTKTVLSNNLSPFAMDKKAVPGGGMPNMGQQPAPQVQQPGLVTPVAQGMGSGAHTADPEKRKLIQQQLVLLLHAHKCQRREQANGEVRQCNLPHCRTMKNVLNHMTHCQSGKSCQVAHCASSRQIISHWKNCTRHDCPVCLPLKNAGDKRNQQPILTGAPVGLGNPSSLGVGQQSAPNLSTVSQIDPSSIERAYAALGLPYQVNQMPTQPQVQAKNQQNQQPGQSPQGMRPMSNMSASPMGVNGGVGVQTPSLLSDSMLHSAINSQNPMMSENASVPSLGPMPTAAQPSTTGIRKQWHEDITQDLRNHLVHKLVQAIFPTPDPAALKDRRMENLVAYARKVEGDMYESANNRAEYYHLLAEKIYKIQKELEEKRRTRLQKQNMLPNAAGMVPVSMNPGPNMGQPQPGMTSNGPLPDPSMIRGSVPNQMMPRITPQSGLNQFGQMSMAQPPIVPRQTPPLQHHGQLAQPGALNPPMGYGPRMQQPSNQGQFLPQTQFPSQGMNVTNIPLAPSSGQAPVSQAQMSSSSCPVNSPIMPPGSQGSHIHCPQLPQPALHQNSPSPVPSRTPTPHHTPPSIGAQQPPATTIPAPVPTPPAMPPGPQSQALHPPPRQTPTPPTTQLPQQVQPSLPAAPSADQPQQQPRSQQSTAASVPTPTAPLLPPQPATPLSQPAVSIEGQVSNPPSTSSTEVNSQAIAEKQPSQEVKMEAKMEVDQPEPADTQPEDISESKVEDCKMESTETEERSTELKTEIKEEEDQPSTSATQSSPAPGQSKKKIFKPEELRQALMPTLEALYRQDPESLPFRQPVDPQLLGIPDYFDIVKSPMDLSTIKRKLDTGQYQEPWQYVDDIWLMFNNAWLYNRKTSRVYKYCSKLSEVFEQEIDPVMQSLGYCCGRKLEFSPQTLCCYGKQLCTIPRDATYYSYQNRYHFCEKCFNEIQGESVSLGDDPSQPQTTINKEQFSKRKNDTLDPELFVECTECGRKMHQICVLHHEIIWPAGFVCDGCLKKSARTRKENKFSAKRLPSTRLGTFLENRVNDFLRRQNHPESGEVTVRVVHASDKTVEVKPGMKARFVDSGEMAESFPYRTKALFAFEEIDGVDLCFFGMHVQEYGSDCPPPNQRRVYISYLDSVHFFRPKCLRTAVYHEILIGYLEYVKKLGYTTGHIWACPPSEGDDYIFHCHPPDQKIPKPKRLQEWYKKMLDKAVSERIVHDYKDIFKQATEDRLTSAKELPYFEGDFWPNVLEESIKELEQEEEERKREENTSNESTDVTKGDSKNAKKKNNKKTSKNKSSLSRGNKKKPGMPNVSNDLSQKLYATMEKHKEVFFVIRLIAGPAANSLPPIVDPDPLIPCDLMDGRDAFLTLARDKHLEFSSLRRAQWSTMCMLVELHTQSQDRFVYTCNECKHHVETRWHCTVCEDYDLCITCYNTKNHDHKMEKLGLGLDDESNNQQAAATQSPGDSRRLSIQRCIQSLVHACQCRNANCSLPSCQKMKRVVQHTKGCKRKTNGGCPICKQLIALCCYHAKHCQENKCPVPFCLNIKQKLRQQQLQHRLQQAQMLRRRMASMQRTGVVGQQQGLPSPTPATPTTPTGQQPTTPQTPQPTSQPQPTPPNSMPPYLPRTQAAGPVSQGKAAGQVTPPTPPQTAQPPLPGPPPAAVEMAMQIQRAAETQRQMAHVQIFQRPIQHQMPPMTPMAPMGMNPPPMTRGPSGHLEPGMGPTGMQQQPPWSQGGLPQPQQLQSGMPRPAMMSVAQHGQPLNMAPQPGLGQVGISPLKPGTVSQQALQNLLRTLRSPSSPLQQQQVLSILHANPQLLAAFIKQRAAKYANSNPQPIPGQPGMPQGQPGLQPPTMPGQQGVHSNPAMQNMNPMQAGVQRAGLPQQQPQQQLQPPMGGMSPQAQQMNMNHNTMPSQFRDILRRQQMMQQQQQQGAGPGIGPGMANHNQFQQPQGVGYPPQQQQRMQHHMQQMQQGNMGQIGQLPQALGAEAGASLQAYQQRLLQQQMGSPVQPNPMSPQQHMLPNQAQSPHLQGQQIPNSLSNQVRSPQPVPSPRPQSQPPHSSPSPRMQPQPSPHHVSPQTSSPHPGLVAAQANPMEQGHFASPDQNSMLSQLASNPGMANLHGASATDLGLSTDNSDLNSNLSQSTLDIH

In turn, `CN1C(=O)Cc2cc(-c3cccc4cc(-c5ccc(C(=O)NCC#Cc6ccc7occ(C8CCC(=O)NC8=O)c7c6)nc5)ncc34)ccc21` (stereo not drawn) [Example A104, N-(3-(3-(2,6-dioxo-piperidin-3-yl)benzofuran-5-yl)prop-2-yn-1-yl)-5-(8-(1-methyl-2-oxoindolin-5-yl)isoquinolin-3-yl)picolinamide] came in with a Dmax of less than 20% and a DC50 greater than 1000 nM.

`Cc1cc2c(N3CCCc4cc(-c5ccc(C(=O)NCC#Cc6ccc7occ(C8CCC(=O)NC8=O)c7c6)nc5)c(C(F)F)cc43)cccc2n(C)c1=O` (stereo not drawn) [Example B22, 5-(7-(difluoromethyl)-1′,3′-dimethyl-2′-oxo-1′,2′,3,4-tetrahydro-2H-[1,5′-biquinolin]-6-yl)-N-(3-(3-(2,6-dioxopiperidin-3-yl)benzofuran-5-yl)prop-2-yn-1-yl)picolinamide] came in with a maximal degradation (Dmax) greater than 80% and a DC50 of 1 to 9.9 nM.

Compound `Cc1cc(-c2ncc(N(C)c3cc4c(c(C(C)C)n3)n(C)c(=O)n4C)cn2)cnc1C(=O)NCC#Cc1ccc2occ(C3CCC(=O)NC3=O)c2c1` (stereo not drawn) [Example A74, N-(3-(3-(2,6-dioxopiperidin-3-yl)benzofuran-5-yl)prop-2-yn-1-yl)-5-(5-((4-isopropyl-1,3-dimethyl-2-oxo-2,3-dihydro-1H-imidazo[4,5-c]pyridin-6-yl)(methyl)amino)pyrimidin-2-yl)-3-methylpicolinamide] gave a Dmax of less than 20% and a DC50 greater than 1000 nM.

For the compound `Cc1nc(-c2cnc(N(C)c3cc(C4CCOCC4)c4c(c3)n(C)c(=O)n4C)cn2)cnc1C(=O)NCC#Cc1cc2c(C3CCC(=O)NC3=O)cccc2o1` (stereo not drawn) [Example A222, 5′-((1,3-dimethyl-2-oxo-7-(tetrahydro-2H-pyran-4-yl)-2,3-dihydro-1H-benzo[d]imidazol-5-yl)(methyl)amino)-N-(3-(4-(2,6-dioxo-piperidin-3-yl)benzofuran-2-yl)prop-2-yn-1-yl)-6-methyl-[2,2′-bipyrazine]-5-carboxamide], the Dmax was greater than 80% and the DC50 was in the range of 1 to 9.9 nM.

Turning to `Cn1c(=O)oc2cc(N3CCOc4nc(-c5ccc(C(=O)NCC#Cc6ccc7occ(C8CCC(=O)NC8=O)c7c6)nc5)ncc43)ccc21` (stereo not drawn) [Example A144, N-(3-(3-(2,6-dioxo-piperidin-3-yl)benzofuran-5-yl)prop-2-yn-1-yl)-5-(5-(3-methyl-2-oxo-2,3-dihydrobenzo[d]oxazol-6-yl)-6,7-dihydro-5H-pyrimido [4,5-b][1,4]oxazin-2-yl)picolinamide], the Dmax was less than 20% and the 50% degradation concentration (DC50) was greater than 1000 nM.

In turn, `Cc1cc(-c2ncc3c(n2)OCCN3c2ccc3c(c2)n(C)c(=O)n3C)cnc1C(=O)NCC#Cc1ccc2occ(C34CC(C3)C(=O)NC4=O)c2c1` [Example A262, 5-(5-(1,3-dimethyl-2-oxo-2,3-dihydro-1H-benzo[d]imidazol-5-yl)-6,7-dihydro-5H-pyrimido[4,5-b] [1,4]oxazin-2-yl)-N-(3-(3-(2,4-dioxo-3-azabicyclo[3.1.1]heptan-1-yl)benzofuran-5-yl)prop-2-yn-1-yl)-3-methylpicolinamide] yielded a Dmax greater than 80% and a DC50 of 10 to 99 nM.

In the case of `CC(C)c1cc(-c2cccc3cc(-c4ccc(C(=O)NCC#Cc5ccc6c(C#N)nn(C7CCC(=O)NC7=O)c6c5)nc4)ncc23)cc2c1n(C)c(=O)n2C` (stereo not drawn) [Example A7, N-(3-(3-Cyano-1-(2,6-dioxopiperidin-3-yl)-1H-indazol-6-yl)prop-2-yn-1-yl)-5-(8-(7-isopropyl-1,3-dimethyl-2-oxo-2,3-dihydro-1H-benzo[d]imidazol-5-yl)isoquinolin-3-yl)picolinamide], the Dmax is greater than 80% and the DC50 lay within 10 to 99 nM.

In the case of `COc1cc(N2CCOc3cc(-c4ccc(C(=O)NCC#Cc5ccc6occ(C7CCC(=O)NC7=O)c6c5)nc4)c(F)cc32)c2cc(C)c(=O)n(C)c2c1` (stereo not drawn) [Example B147, N-(3-(3-(2,6-dioxopiperidin-3-yl)benzofuran-5-yl)prop-2-yn-1-yl)-5-(6-fluoro-4-(7-methoxy-1,3-dimethyl-2-oxo-1,2-dihydro-quinolin-5-yl)-3,4-dihydro-2H-benzo[b][1,4]oxazin-7-yl)picolinamide], the Dmax was greater than 80% and the 50% degradation concentration (DC50) fell in the range of 1 to 9.9 nM.

The compound `Cc1cc(-c2cc3c(cc2F)N(c2cccc4c2cc(C)c(=O)n4C)CCO3)cnc1C(=O)NCC#Cc1ccc2occ(C3CCC(=O)NC3=O)c2c1` (stereo not drawn) [Example B21, 5-(4-(1,3-dimethyl-2-oxo-1,2-dihydroquinolin-5-yl)-6-fluoro-3,4-dihydro-2H-benzo[b][1,4]oxazin-7-yl)-N-(3-(3-(2,6-dioxopiperidin-3-yl)benzofuran-5-yl)prop-2-yn-1-yl)-3-methylpicolinamide] came in with a Dmax greater than 80% and a DC50 of 1 to 9.9 nM.

As to `Cc1cc(-c2ncc(N(C)c3cc(C4CCOCC4)c4c(c3)n(C)c(=O)n4C)cn2)cnc1C(=O)NCC#Cc1cc2c(C3CCC(=O)NC3=O)cccc2o1` (stereo not drawn) [Example A256, 5-(5-((1,3-dimethyl-2-oxo-7-(tetrahydro-2H-pyran-4-yl)-2,3-dihydro-1H-benzo[d]imidazol-5-yl)(methyl)amino)pyrimidin-2-yl)-N-(3-(4-(2,6-dioxo-piperidin-3-yl)benzo-furan-2-yl)prop-2-yn-1-yl)-3-methylpicolinamide], the Dmax is greater than 80% and the DC50 lay in the range of 1 to 9.9 nM.

The compound `Cc1cc2c(N3CCCc4cc(-c5ccc(C(=O)NCC#Cc6ccc7occ(C8CCC(=O)NC8=O)c7c6)nc5)c(F)cc43)cccc2n(C)c1=O` (stereo not drawn) [Example B129, N-(3-(3-(2,6-dioxopiperidin-3-yl)benzofuran-5-yl)prop-2-yn-1-yl)-5-(7-fluoro-1′,3′-dimethyl-2′-oxo-1′,2′,3,4-tetrahydro-2H-[1,5′-biquinolin]-6-yl)picolinamide] displayed a Dmax greater than 80% and a DC50 of 1 to 9.9 nM.

Compound `Cn1c(=O)n(C)c2c(N3CCOCC3)nc(-c3cccc4cc(-c5ccc(C(=O)NCC#Cc6cc7c(C8CCC(=O)NC8=O)nccc7o6)nc5)ncc34)cc21` (stereo not drawn) [Example A206, 5-(8-(1,3-dimethyl-4-morpholino-2-oxo-2,3-dihydro-1H-imidazo[4,5-c]pyridin-6-yl)isoquinolin-3-yl)-N-(3-(4-(2,6-dioxopiperidin-3-yl)furo[3,2-c]pyridin-2-yl)prop-2-yn-1-yl)picolinamide] yielded a Dmax greater than 80% and a DC50 of less than 1 nM.

Turning to `Cc1cc2c(N3CCCc4nc(-c5ccc(C(=O)NCC#Cc6cc7c(C8CCC(=O)NC8=O)cccn7n6)nc5)ncc43)cc(C3CCOCC3)cc2n(C)c1=O` (stereo not drawn) [Example B170, 5-(5-(1,3-dimethyl-2-oxo-7-(tetrahydro-2H-pyran-4-yl)-1,2-dihydroquinolin-5-yl)-5,6,7,8-tetrahydropyrido[3,2-d]pyrimidin-2-yl)-N-(3-(4-(2,6-dioxopiperidin-3-yl)pyrazolo[1,5-a]pyridin-2-yl)prop-2-yn-1-yl)picolinamide], the Dmax was in the range of 20 to 39% and the DC50 is 1 to 9.9 nM.

Compound `CC(C)c1cc(-c2cccc3cc(-c4ccc(C(=O)NCC#Cc5cc(C#N)c6occ(C7CCC(=O)NC7=O)c6c5)nc4)ncc23)cc2c1n(C)c(=O)n2C` (stereo not drawn) [Example A233, N-(3-(7-cyano-3-(2,6-dioxopiperidin-3-yl)benzofuran-5-yl)prop-2-yn-1-yl)-5-(8-(7-isopropyl-1,3-dimethyl-2-oxo-2,3-dihydro-1H-benzo [d]imidazol-5-yl)isoquinolin-3-yl)picolinamide] gave a Dmax of 40 to 59% and a DC50 of 10 to 99 nM.

The compound `Cc1cc(-c2cc3c(cc2C(F)F)N(c2ccc4c(c2)n(C)c(=O)n4C)CCC3)cnc1C(=O)NCC#Cc1ccc2occ(C3CCC(=O)NC3=O)c2c1` (stereo not drawn) [Example A94, 5-(7-(difluoromethyl)-1-(1,3-dimethyl-2-oxo-2,3-dihydro-1H-benzo[d]imidazol-5-yl)-1,2,3,4-tetrahydro-quinolin-6-yl)-N-(3-(3-(2,6-dioxopiperidin-3-yl)benzofuran-5-yl)prop-2-yn-1-yl)-3-methylpicolinamide] yielded a Dmax greater than 80% and a DC50 of 1 to 9.9 nM.

For `CC(C)c1cc(-c2cccc3cc(-c4ccc(C(=O)NCC#Cc5nc6c(C7CCC(=O)NC7=O)cccc6n5C)nc4)ncc23)cc2c1n(C)c(=O)n2C` (stereo not drawn) [Example A186, N-(3-(4-(2,6-dioxo-piperidin-3-yl)-1-methyl-1H-benzo[d]imidazol-2-yl)prop-2-yn-1-yl)-5-(8-(7-iso-propyl-1,3-dimethyl-2-oxo-2,3-dihydro-1H-benzo[d]imidazol-5-yl)isoquinolin-3-yl)picolinamide], the Dmax was less than 20% and the DC50 was greater than 1000 nM.

Compound `Cn1c(=O)ccc2c(N3CCCc4nc(-c5ccc(C(=O)NCC#Cc6ccc7occ(C8CCC(=O)NC8=O)c7c6)nc5)ncc43)cc(C3CCOCC3)cc21` (stereo not drawn) [Example B105, N-(3-(3-(2,6-dioxopiperidin-3-yl)benzofuran-5-yl)prop-2-yn-1-yl)-5-(5-(1-methyl-2-oxo-7-(tetrahydro-2H-pyran-4-yl)-1,2-dihydro-quinolin-5-yl)-5,6,7,8-tetrahydropyrido[3,2-d]pyrimidin-2-yl)picolinamide] gave a Dmax of less than 20% and a DC50 greater than 1000 nM.

The compound `Cc1cc2c(-c3cccc4cc(-c5ccc(C(=O)NCC#Cc6ccc7occ(C8CCC(=O)NC8=O)c7c6)nc5)ncc34)nc(N3CC(C)(O)C3)cc2n(C)c1=O` (stereo not drawn) [Example B101, N-(3-(3-(2,6-dioxopiperidin-3-yl)benzofuran-5-yl)prop-2-yn-1-yl)-5-(8-(7-(3-hydroxy-3-methylazetidin-1-yl)-1,3-dimethyl-2-oxo-1,2-dihydro-1,6-naphthyridin-5-yl)isoquinolin-3-yl)picolinamide] displayed a maximal degradation (Dmax) greater than 80% and a DC50 of 1 to 9.9 nM.
